Measured values as given in patent US9255295B2, “Method for evaluating the sensitizing potential of a test compound” (IMMUNOSEARCH, priority 2010, dated 2016).

Test system: genes specific for sensitization (BRAK, CTSS, DAPK2, FABP4, HSP27, IL18, HSP90, IL1R2, TPSAB1, CXCR1, DEFB1, DHFR, EHF, IVL, KRT4, MELANA, NGAL, PDZK1IP1, PI3 …)
Test: Expression of the other (non-ARE) sensitization-specific genes in EPISKIN reconstructed skin (quantitative RT-PCR)
Assay type: cell-based, human
Details: for BRAK expression / DHFR expression / HSP90 expression / IL18 expression / KRT4 expression / MELANA expression / PDZK1iP1 expression / SERPINB3 expression: compared to the control

CC=Cc1ccc(O)c(OC)c1 [Isoeugenol]
BRAK NUMBER OF GENES grade (0.1%): 0 (if this expression is lower, the grade is 0) | CTSS expression compared to control (0.1%): 0.9 | CTSS grade (NUMBER OF GENES) (0.1%): 0 (if this expression is lower, the grade is 0) | CXCR1 expression compared to control (0.1%): 0.7 | CXCR1 grade (NUMBER OF GENES) (0.1%): 0 (if this expression is lower, the grade is 0) | DAPK2 expression compared to control (0.1%): 1.1 | DAPK2 grade (NUMBER OF GENES) (0.1%): 0 (if this expression is lower, the grade is 0) | DEFB1 expression compared to control (0.1%): 1.0 | DEFB1 grade (NUMBER OF GENES) (0.1%): 0 (if this expression is lower, the grade is 0) | DHFR NUMBER OF GENES grade (0.1%): 0 (if this expression is lower, the grade is 0) | EHF expression compared to control (0.1%): 1.5 | EHF grade (NUMBER OF GENES) (0.1%): 1 (If the expression is greater than 1.3 compared to the control, a grade of 11s given) | FABP4 expression compared to control (0.1%): 0.8 | FABP4 grade (NUMBER OF GENES) (0.1%): 0 (if this expression is lower, the grade is 0) | HSP27 expression compared to control (0.1%): 1.0 | HSP27 grade (NUMBER OF GENES) (0.1%): 0 (if this expression is lower, the grade is 0) | HSP90 NUMBER OF GENES grade (0.1%): 0 (if this expression is lower, the grade is 0) | IL18 NUMBER OF GENES grade (0.1%): 0 (if this expression is lower, the grade is 0) | IVL expression compared to control (0.1%): 1.3 | IVL grade (NUMBER OF GENES) (0.1%): 1 (If the expression is greater than 1.3 compared to the control, a grade of 11s given) | KRT4 NUMBER OF GENES grade (0.1%): 0 (if this expression is lower, the grade is 0) | MELANA NUMBER OF GENES grade (0.1%): 0 (if this expression is lower, the grade is 0) | NGAL expression compared to control (0.1%): 1.1 | NGAL grade (NUMBER OF GENES) (0.1%): 0 (if this expression is lower, the grade is 0) | P13 expression compared to control (0.1%): 1.1 | P13 grade (NUMBER OF GENES) (0.1%): 0 (if this expression is lower, the grade is 0) | PDZK1iP1 NUMBER OF GENES grade (0.1%): 0 (if this expression is lower, the grade is 0) | SENS >1.3 (number of genes) (0.1%): 2 | SERPINB3 NUMBER OF GENES grade (0.1%): 0 (if this expression is lower, the grade is 0) | TOTAL SENS (number of genes) (0.1%): 2 | BRAK expression (0.1%): 0.6 | DHFR expression (0.1%): 0.8 | HSP90 expression (0.1%): 0.9 | IL18 expression (0.1%): 0.6 | KRT4 expression (0.1%): 1.2 | MELANA expression (0.1%): 0.9 | PDZK1iP1 expression (0.1%): 1.0 | SERPINB3 expression (0.1%): 1.2 | BRAK NUMBER OF GENES grade (1%): 0 (if this expression is lower, the grade is 0) | CTSS expression compared to control (1%): 0.8 | CTSS grade (NUMBER OF GENES) (1%): 0 (if this expression is lower, the grade is 0) | CXCR1 expression compared to control (1%): 1.1 | CXCR1 grade (NUMBER OF GENES) (1%): 0 (if this expression is lower, the grade is 0) | DAPK2 expression compared to control (1%): 0.9 | DAPK2 grade (NUMBER OF GENES) (1%): 0 (if this expression is lower, the grade is 0) | DEFB1 expression compared to control (1%): 1.1 | DEFB1 grade (NUMBER OF GENES) (1%): 0 (if this expression is lower, the grade is 0) | DHFR NUMBER OF GENES grade (1%): 0 (if this expression is lower, the grade is 0) | EHF expression compared to control (1%): 1.2 | EHF grade (NUMBER OF GENES) (1%): 0 (if this expression is lower, the grade is 0) | FABP4 expression compared to control (1%): 0.9 | FABP4 grade (NUMBER OF GENES) (1%): 0 (if this expression is lower, the grade is 0) | HSP27 expression compared to control (1%): 0.8 | HSP27 grade (NUMBER OF GENES) (1%): 0 (if this expression is lower, the grade is 0) | HSP90 NUMBER OF GENES grade (1%): 1 (If the expression is greater than 1.3 compared to the control, a grade of 11s given) | IL18 NUMBER OF GENES grade (1%): 0 (if this expression is lower, the grade is 0) | IVL expression compared to control (1%): 1.4 | IVL grade (NUMBER OF GENES) (1%): 1 (If the expression is greater than 1.3 compared to the control, a grade of 11s given) | KRT4 NUMBER OF GENES grade (1%): 0 (if this expression is lower, the grade is 0) | MELANA NUMBER OF GENES grade (1%): 1 (If the expression is greater than 1.3 compared to the control, a grade of 11s given) | NGAL expression compared to control (1%): 1.1 | NGAL grade (NUMBER OF GENES) (1%): 0 (if this expression is lower, the grade is 0) | P13 expression compared to control (1%): 0.9 | P13 grade (NUMBER OF GENES) (1%): 0 (if this expression is lower, the grade is 0) | PDZK1iP1 NUMBER OF GENES grade (1%): 0 (if this expression is lower, the grade is 0) | SENS >1.3 (number of genes) (1%): 5 | SERPINB3 NUMBER OF GENES grade (1%): 0 (if this expression is lower, the grade is 0) | TOTAL SENS (number of genes) (1%): 5 | BRAK expression (1%): 0.9 | DHFR expression (1%): 0.9 | HSP90 expression (1%): 1.3 | IL18 expression (1%): 1.1 | KRT4 expression (1%): 0.8 | MELANA expression (1%): 1.4 | PDZK1iP1 expression (1%): 1.1 | SERPINB3 expression (1%): 1.2 | BRAK NUMBER OF GENES grade (10%): 0 (if this expression is lower, the grade is 0) | CTSS expression compared to control (10%): 1.5 | CTSS grade (NUMBER OF GENES) (10%): 1 (If the expression is greater than 1.3 compared to the control, a grade of 11s given) | CXCR1 expression compared to control (10%): 1.6 | CXCR1 grade (NUMBER OF GENES) (10%): 1 (If the expression is greater than 1.3 compared to the control, a grade of 11s given) | DAPK2 expression compared to control (10%): 0.9 | DAPK2 grade (NUMBER OF GENES) (10%): 0 (if this expression is lower, the grade is 0) | DEFB1 expression compared to control (10%): 1.5 | DEFB1 grade (NUMBER OF GENES) (10%): 1 (If the expression is greater than 1.3 compared to the control, a grade of 11s given) | DHFR NUMBER OF GENES grade (10%): 0 (if this expression is lower, the grade is 0) | EHF expression compared to control (10%): 1.4 | EHF grade (NUMBER OF GENES) (10%): 1 (If the expression is greater than 1.3 compared to the control, a grade of 11s given) | FABP4 expression compared to control (10%): 1.2 | FABP4 grade (NUMBER OF GENES) (10%): 0 (if this expression is lower, the grade is 0) | HSP27 expression compared to control (10%): 0.9 | HSP27 grade (NUMBER OF GENES) (10%): 0 (if this expression is lower, the grade is 0) | HSP90 NUMBER OF GENES grade (10%): 1 (If the expression is greater than 1.3 compared to the control, a grade of 11s given) | IL18 NUMBER OF GENES grade (10%): 0 (if this expression is lower, the grade is 0) | IVL expression compared to control (10%): 1.9 | IVL grade (NUMBER OF GENES) (10%): 1 (If the expression is greater than 1.3 compared to the control, a grade of 11s given) | KRT4 NUMBER OF GENES grade (10%): 0 (if this expression is lower, the grade is 0) | MELANA NUMBER OF GENES grade (10%): 0 (if this expression is lower, the grade is 0) | NGAL expression compared to control (10%): 2.1 | NGAL grade (NUMBER OF GENES) (10%): 1 (If the expression is greater than 1.3 compared to the control, a grade of 11s given) | P13 expression compared to control (10%): 1.4 | P13 grade (NUMBER OF GENES) (10%): 1 (If the expression is greater than 1.3 compared to the control, a grade of 11s given) | PDZK1iP1 NUMBER OF GENES grade (10%): 0 (if this expression is lower, the grade is 0) | SENS >1.3 (number of genes) (10%): 10 | SERPINB3 NUMBER OF GENES grade (10%): 0 (if this expression is lower, the grade is 0) | TOTAL SENS (number of genes) (10%): 10 | BRAK expression (10%): 0.8 | DHFR expression (10%): 0.9 | HSP90 expression (10%): 1.3 | IL18 expression (10%): 0.7 | KRT4 expression (10%): 1.0 | MELANA expression (10%): 0.6 | PDZK1iP1 expression (10%): 1.0 | SERPINB3 expression (10%): 1.1 | BRAK NUMBER OF GENES grade (50%): 0 (if this expression is lower, the grade is 0) | CTSS expression compared to control (50%): 1.4 | CTSS grade (NUMBER OF GENES) (50%): 1 (If the expression is greater than 1.3 compared to the control, a grade of 11s given) | CXCR1 expression compared to control (50%): 2.6 | CXCR1 grade (NUMBER OF GENES) (50%): 1 (If the expression is greater than 1.3 compared to the control, a grade of 11s given) | DAPK2 expression compared to control (50%): 1.4 | DAPK2 grade (NUMBER OF GENES) (50%): 1 (If the expression is greater than 1.3 compared to the control, a grade of 11s given) | DEFB1 expression compared to control (50%): 2.1 | DEFB1 grade (NUMBER OF GENES) (50%): 1 (If the expression is greater than 1.3 compared to the control, a grade of 11s given) | DHFR NUMBER OF GENES grade (50%): 0 (if this expression is lower, the grade is 0) | EHF expression compared to control (50%): 2.0 | EHF grade (NUMBER OF GENES) (50%): 1 (If the expression is greater than 1.3 compared to the control, a grade of 11s given) | FABP4 expression compared to control (50%): 1.8 | FABP4 grade (NUMBER OF GENES) (50%): 1 (If the expression is greater than 1.3 compared to the control, a grade of 11s given) | HSP27 expression compared to control (50%): 1.2 | HSP27 grade (NUMBER OF GENES) (50%): 0 (if this expression is lower, the grade is 0) | HSP90 NUMBER OF GENES grade (50%): 1 (If the expression is greater than 1.3 compared to the control, a grade of 11s given) | IL18 NUMBER OF GENES grade (50%): 0 (if this expression is lower, the grade is 0) | IVL expression compared to control (50%): 2.8 | IVL grade (NUMBER OF GENES) (50%): 1 (If the expression is greater than 1.3 compared to the control, a grade of 11s given) | KRT4 NUMBER OF GENES grade (50%): 0 (if this expression is lower, the grade is 0) | MELANA NUMBER OF GENES grade (50%): 0 (if this expression is lower, the grade is 0) | NGAL expression compared to control (50%): 2.7 | NGAL grade (NUMBER OF GENES) (50%): 1 (If the expression is greater than 1.3 compared to the control, a grade of 11s given) | P13 expression compared to control (50%): 1.7 | P13 grade (NUMBER OF GENES) (50%): 1 (If the expression is greater than 1.3 compared to the control, a grade of 11s given) | PDZK1iP1 NUMBER OF GENES grade (50%): 0 (if this expression is lower, the grade is 0) | SENS >1.3 (number of genes) (50%): 13 | SERPINB3 NUMBER OF GENES grade (50%): 1 (If the expression is greater than 1.3 compared to the control, a grade of 11s given) | TOTAL SENS (number of genes) (50%): 13 | BRAK expression (50%): 0.6 | DHFR expression (50%): 0.9 | HSP90 expression (50%): 1.7 | IL18 expression (50%): 0.8 | KRT4 expression (50%): 1.2 | MELANA expression (50%): 0.4 | PDZK1iP1 expression (50%): 1.1 | SERPINB3 expression (50%): 1.5
